Data taken from paper PMC8958501, “Hypothesis-Driven, Structure-Based Design in Photopharmacology: The Case of eDHFR Inhibitors” (Journal of Medicinal Chemistry, 2022).
Read-outs that look alike come from different tables or passages of the source.

Tests used:
eDHFR = target: T1, eDHFR (Escherichia coli, UniProt P0ABQ4); test: biochemical; details: for light-induced change in eDHFR inhibition (dark IC50 vs irradiated IC50): irradiation with λ1 = 365 nm;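 on all read-outs here: purified E. coli DHFR colorimetric assay, enzyme with NADPH 3 min then inhibitor (10^-12 to 10^-5 M) 7 min, rate ΔAbs/s relative to DMSO control (1% v/v), triplicates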
T1 construct: made in house; host or cells: E. cloni EXPRESS BL21 (DE3) cells (Lucigen), pT7-SC1 plasmid
Procedure: A 10 mM stock solution of the inhibitor in DMSO was divided into two parts. One half was thermally adapted with a heat gun for 1 min to obtain only the trans isomer.
The compounds were tested as eDHFR inhibitors via a colorimetric assay (Sigma-Aldrich, Catalog No. CS0340). Instead of the human DHFR protein provided in the kit, the in-house purified eDHFR was used. In a 3 mL cuvette, eDHFR (∼20 ng) was incubated with NADPH (60 μM, final) for 3 min, followed by an incubation with the inhibitor (from 10^–5 to 10^–12 M, final) for an additional 7 min. […] The concentration of DMSO in the final volume was 1% v/v for all enzymatic reactions. The measurements were performed in triplicates. For the control enzymatic reactions, eDHFR was incubated with NADPH and DMSO (1% v/v, final). […] The related control enzymatic reaction was also performed under continuous irradiation with λ1 = 390 nm light. Linear regression was performed in Microsoft Excel to calculate ΔAbs/s. % eDHFR activity was calculated as the ratio between ΔAbs/s for the sample and ΔAbs/s for the control reaction. GraphPadPrism 5.0 (GraphPad Software, Inc., version 5.00) was used for the determination of the IC50 of each inhibitor. Nonlinear regression was used for data fitting.

[1] = Thermal cis-to-trans isomerization (thermal half-life of the metastable cis isomer); type: physicochemical; details: thermal cis-to-trans isomerization, DMSO, 25 °C, 20 µM
Procedure: UV–vis absorption spectra were recorded on an Agilent 8453 UV–vis Spectrophotometer. Photochemical isomerization (photoswitching) was achieved by irradiation from the side in a fluorescence quartz cuvette (width = 1.0 cm) using a custom-built (Prizmatix/Mountain Photonics) multiwavelength fiber coupled LED system (FC6-LED-WL) including the following LEDs: 365A, 390B, 420Z, 445B, 535R, 630CA. A detailed description of the setup was published by us recently.[84] Alternatively, the samples were irradiated at 340 nm using the LOT Quantum design setup with 300 W Xe-Arc lamp, using the Thorlabs FB340-10 Bandpass filter. A Quantum Northwest TC1 temperature controller was used to maintain the temperature at 25 °C during photochemical studies. To analyze the fatigue resistance of the compounds, repeated irradiation cycles were performed using alternating wavelengths. The decrease and increase of the π–π* transition band was followed by UV–vis spectroscopy (Agilent 8453) at 25 °C while stirring. To determine the thermal lifetime for the metastable cis isomer, samples were irradiated with the custom-built setup until photostationary state (PSS) was reached. Then, the cuvettes were placed in a JASCO V750 spectrophotometer with a PTC 424S/15 temperature controller, and the recovery of the π–π* transition was followed while stirring at 25 °C (for solutions in DMSO and eDHFR assay buffer) or 37 °C (for solutions in 10 mM Tris-HCl buffer pH 7.0). The data were fitted using a first-order exponential function in OriginPro 2018. For the PSD determination by ^1H NMR spectroscopy, 0.5 mL of a 2 mM solution of the respective compound in DMSO-d6 was thermally equilibrated by briefly (∼10 s) heating the sample with a heat gun. Subsequently, the sample was irradiated in a glass NMR tube with a 365 nm hand-held lamp (Spectroline ENB-280C) or the LEDs of the custom-built setup. Detailed data are reported in the SI.

E. coli CS1562 = test: Antibacterial activity assay (MIC, bacterial growth curves); type: cell-based, Escherichia coli; details: for MIC: Escherichia coli; for MIC / bacterial growth inhibition, same in both forms: both before and after irradiation with λ1 = 365 nm; for MIC / bacterial growth inhibition, same in both forms / light-induced difference in antibacterial activity (dark MIC vs irradiated MIC): E. coli CS1562; for light-induced difference in antibacterial activity (dark MIC vs irradiated MIC): irradiation with λ1 = 365 nm
Procedure: A culture of E. coli CS1562 was grown overnight in LB medium (10 g/L tryptone, 5 g/L yeast extract, 5 g/L NaCl) containing tetracycline (10 μg/mL) at 37 °C. The OD600 was measured, and the culture was diluted to 0.002 OD600 in LB medium. Series dilutions of the compounds were prepared in DMSO and diluted 25 times in sterile LB medium in a black sterile Eppendorf tube. […] Subsequently, the dark samples were added to the 96-well plate (100 μL, triplicates). Lastly, the LB medium containing E. coli CS1562 at 0.002 OD was added to every well (100 μL). The cells were grown overnight at 37 °C in a plate reader (Synergy H1, Biotek), and the OD600 was measured every 10 min with a 10 s shaking step before each measurement. The OD600 curves were background-corrected by subtracting the value at t = 0. […] Detailed data are reported in the SI.

[2] = IC50 Dark, dark-adapted (thermally adapted, trans isomer)
[3] = after irradiation, read-out: DHFR inhibition IC50 (nM) after irradiation
[4] = before irradiation, read-out: DHFR inhibition IC50 (nM) before irradiation
[5] = irradiated with λ1 (1: continuous irradiation at 390 nm), read-out: IC50 Light
[6] = no considerable activity up to, dark-adapted and irradiated states
[7] = DHFR inhibition IC50 (nM) before irradiation, before irradiation
[8] = irradiated to PSS with λ1 (340 nm for 3, 365 nm for 6-15), read-out: IC50 Light
[9] = light or radiation study, after irradiation with λ1 = 365 nm, E. coli CS1562, 24 h, read-out: MIC Light
[10] = light or radiation study, after irradiation, E. coli CS1562, 24 h, read-out: MIC (µM) after irradiation
[11] = light or radiation study, before irradiation, E. coli CS1562, 24 h, read-out: MIC (µM) before irradiation
[12] = dark, E. coli CS1562, 24 h, read-out: MIC Dark

T1 sequence (P0ABQ4 whole entry): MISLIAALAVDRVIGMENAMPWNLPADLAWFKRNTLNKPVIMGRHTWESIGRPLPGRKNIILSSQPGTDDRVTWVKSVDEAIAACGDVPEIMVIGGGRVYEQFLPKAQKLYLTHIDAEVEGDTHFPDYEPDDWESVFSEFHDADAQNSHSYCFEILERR

Structure (SMILES) | IC50 (eDHFR; fragment, no irradiation, read-out: IC50) | t1/2 DMSO (25 °C) [1] | IC50 (eDHFR; [2]) | IC50 (eDHFR; [3]) | IC50 (eDHFR; [4]) | IC50 (eDHFR; [5]) | IC50 (eDHFR; [6]) | melting point | IC50 (eDHFR; [7]) | IC50 (eDHFR; [8]) | MIC (E. coli CS1562; [9]) | MIC (E. coli CS1562; [10]) | MIC (E. coli CS1562; [11]) | MIC (E. coli CS1562; [12]) | MIC / bacterial growth inhibition, same in both forms (E. coli CS1562) | light-induced difference in antibacterial activity (dark MIC vs irradiated MIC) (E. coli CS1562) | light-induced change in eDHFR inhibition (dark IC50 vs irradiated IC50) (eDHFR) | MIC (E. coli CS1562; CS1562, light or radiation study, 24 h) | MIC (E. coli CS1562; CS1562, light or radiation study, 24 h, read-out: MIC (µM) before irradiation)
Nc1ccnc(N)n1 [2,4-diaminopyrimidine, reference compound] | 390000 ± 150000 nM |  |  |  |  |  |  |  |  |  |  |  |  |  |  |  |  |  | 
Nc1ncc(/N=N/c2ccccc2)c(N)n1 [Compound 1, (E)-5-(Phenyldiazenyl)pyrimidine-2,4-diamine] |  | 1.3 h | > 10000 nM | > 10000 nM | > 10000 nM | > 10000 nM | > 10000 nM | > 250 °C |  |  |  |  |  |  |  |  |  |  | 
Nc1ncc(-c2ccc(/N=N/c3ccccc3)cc2)c(N)n1 [Compound 2, (E)-5-[4-(Phenyldiazenyl)phenyl]pyrimidine-2,4-diamine] |  | 27 h | > 10000 nM | > 10000 nM | > 10000 nM | > 10000 nM | > 10000 nM | 199 to 201 °C |  |  |  |  |  |  |  |  |  |  | 
Nc1ncc(C#Cc2ccc(/N=N/c3ccccc3)cc2)c(N)n1 [Compound 4, (E)-5-{[4-(Phenyldiazenyl)phenyl]ethynyl}pyrimidine-2,4-diamine] |  | 8.6 h | > 10000 nM | > 10000 nM | > 10000 nM | > 10000 nM | > 10000 nM |  |  |  |  |  |  |  |  |  |  |  | 
Nc1ncc(C#Cc2cccc(/N=N/c3ccccc3)c2)c(N)n1 [Compound 5, (E)-5-{[3-(Phenyldiazenyl)phenyl]ethynyl}pyrimidine-2,4-diamine] |  | > 24 h | 5300 nM |  |  | 2600 nM |  | 207 to 209 °C |  |  |  |  |  |  |  |  |  |  | 
COc1ccc(/N=N/c2ccc(C(C)(C#Cc3cnc(N)nc3N)OC)cc2)cc1 (stereo not drawn) [Compound 8, (E)-5-{3-Methoxy-3-[4-((4-methoxyphenyl)diazenyl]phenyl}but-1-yn-1-yl)pyrimidine-2,4-diamine] |  | > 24 h | 330 ± 190 nM | 200 ± 77 nM |  | 200 nM |  | 186 to 189 °C | 330 ± 190 nM | 200 ± 77 nM | > 80 µM | > 80 µM | > 80 µM | > 80 µM | > 80 µM |  |  |  | 
COC(C)(C#Cc1cnc(N)nc1N)c1ccc(/N=N/c2c(C)nn(C)c2C)cc1 (stereo not drawn) [Compound 9, (E)-5-(3-Methoxy-3-(4-((1,3,5-trimethyl-1H-pyrazol-4-yl)diazenyl)phenyl)but-1-yn-1-yl)pyrimidine-2,4-diamine] |  | > 24 h |  | 640 ± 510 nM | 220 ± 60 nM |  |  | 162 to 164 °C |  |  | 80 µM | 80 µM | 80 µM | 80 µM |  | did not display any light-dependent potency difference |  |  | 
COC(C)(C#Cc1cnc(N)nc1N)c1ccc(/N=N/c2cccc(C(=O)O)c2)cc1 (stereo not drawn) [Compound 10, (E)-3-{[4-(4-(2,4-Diaminopyrimidin-5-yl)-2-methoxybut-3-yn-2-yl)phenyl]diazenyl}benzoic acid] |  | > 24 h | 24 nM |  |  |  |  | 190 °C (dec.) |  | 57 nM | 20 µM | 20 µM | 20 µM | 20 µM | 20 µM |  |  |  | 
COC(C)(C#Cc1cnc(N)nc1N)c1ccc(/N=N/c2ccc(C(=O)O)cc2)cc1 (stereo not drawn) [Compound 11, (E)-4-{[4-(4-(2,4-Diaminopyrimidin-5-yl)-2-methoxybut-3-yn-2-yl)phenyl]diazenyl}benzoic acid] |  | > 24 h | 58 ± 13 nM | 70 ± 39 nM |  |  |  | 248 °C (dec.) | 58 ± 13 nM | 70 ± 39 nM | 40 µM | 40 µM | 40 µM | 40 µM | 40 µM |  | not significant |  | 
COC(C)(C#Cc1cnc(N)nc1N)c1ccc(/N=N/c2ccc(C)c(C(=O)O)c2)cc1 (stereo not drawn) [Compound 12, (E)-5-{[4-(4-(2,4-Diaminopyrimidin-5-yl)-2-methoxybut-3-yn-2-yl)phenyl]diazenyl}-2-methylbenzoic acid] |  | > 24 h |  | 71 ± 18 nM | 13 ± 2.8 nM |  |  | 221 °C (dec.) |  |  | 20 µM | 20 µM | 20 µM | 20 µM |  |  | 5 fold |  | 
COC(C)(C#Cc1cnc(N)nc1N)c1ccc(/N=N/c2ccc(Cl)c(C(=O)O)c2)cc1 (stereo not drawn) [Compound 13, (E)-2-Chloro-5-{[4-(4-(2,4-diaminopyrimidin-5-yl)-2-methoxybut-3-yn-2-yl)phenyl]diazenyl}benzoic acid] |  | > 24 h |  | 29 ± 8.6 nM | 28 ± 4.8 nM |  |  | 212 °C (dec.) |  |  | 80 µM | 80 µM | 40 µM | 40 µM |  |  | no difference in activity |  | 
COC(C)(C#Cc1cnc(N)nc1N)c1ccc(/N=N/c2ccc(C(=O)O)c(C)c2)cc1 (stereo not drawn) [Compound 14, (E)-4-{[4-(4-(2,4-Diaminopyrimidin-5-yl)-2-methoxybut-3-yn-2-yl)phenyl]diazenyl}-2-methylbenzoic acid] |  | > 24 h |  | 37 ± 14 nM | 77 ± 26 nM |  |  | 240 °C (dec.) |  |  | 40 µM | 40 µM | 20 µM | 20 µM |  |  | 2 fold |  | 
COC(C)(C#Cc1cnc(N)nc1N)c1ccc(/N=N/c2ccc(C(=O)O)c(Cl)c2)cc1 (stereo not drawn) [Compound 15, (E)-2-Chloro-4-{[4-(4-(2,4-diaminopyrimidin-5-yl)-2-methoxybut-3-yn-2-yl)phenyl]diazenyl}benzoic acid] |  | > 24 h | 52 ± 11 nM | 27 ± 3.7 nM |  |  |  | 245 °C (dec.) | 52 ± 11 nM | 27 ± 3.7 nM | 20 µM | 20 µM | 40 µM | 40 µM |  | 2 fold | 2 fold |  | 
COc1ccc(/N=N/c2ccc(COc3c(OC)cc(Cc4cnc(N)nc4N)cc3OC)cc2)cc1 [PMAT, para-methoxyazobenzene trimethoprim, reference compound] |  |  | 2 ± 0.61 nM |  |  |  |  |  |  | 2.5 ± 0.61 nM |  |  |  |  |  |  |  |  | 
COc1cc(Cc2cnc(N)nc2N)cc(OC)c1OCc1cc(Cl)c(/N=N/c2c(Cl)cccc2Cl)c(Cl)c1 [TCAT, tetra-ortho-chloroazobenzene trimethoprim, reference compound] |  |  |  | 3.3 ± 2.1 nM | 3.8 ± 1.4 nM |  |  |  |  |  |  |  |  |  |  |  |  |  | 
COc1cc(Cc2cnc(N)nc2N)cc(OC)c1OCc1cc(F)c(/N=N/c2c(F)cccc2F)c(F)c1 [TFAT, tetra-ortho-fluoroazobenzene trimethoprim, reference compound] |  |  |  | 1.7 ± 0.32 nM | 1.9 ± 0.61 nM |  |  |  |  |  |  |  |  |  |  |  |  |  | 
COc1cc(Cc2cnc(N)nc2N)cc(OC)c1OC [TMP, trimethoprim, reference compound] |  |  |  |  |  |  |  |  |  |  |  |  |  |  |  |  |  | 1.3 µM | 1.3 µM
